According to ChEMBL document CHEMBL5303766, “Data for DCP probe FHT-2344” (2022):

Key:
[1] = molecular target: Serine/threonine-protein kinase 24 (Homo sapiens) (UniProt Q9Y6E0); assay: MST3 SGC Tm panel (DSF); conditions: for ΔTm: Compound concentration 10.0 uM
[2] = molecular target: Calcium/calmodulin-dependent protein kinase type II subunit beta (Homo sapiens) (UniProt Q13554); assay: CAMK2B SGC Tm panel (DSF); conditions: for ΔTm: Compound concentration 10.0 uM
[3] = molecular target: MAP/microtubule affinity-regulating kinase 3 (Homo sapiens) (UniProt P27448); assay: MARK3 SGC Tm panel (DSF); conditions: for ΔTm: Compound concentration 10.0 uM
[4] = molecular target: Kappa-type opioid receptor (Homo sapiens) (UniProt P41145); conditions: Compound concentration 10.0 uM
[5] = molecular target: Cyclin-dependent kinase 2 (Homo sapiens) (UniProt P24941); assay: CDK2 SGC Tm panel (DSF); conditions: for ΔTm: Compound concentration 10.0 uM
[6] = molecular target: T1, Ephrin type-B receptor 3 (Homo sapiens) (UniProt P54753); assay: EPHB3 SGC Tm panel (DSF); conditions: for ΔTm: Compound concentration 10.0 uM
T1 sequence (whole entry): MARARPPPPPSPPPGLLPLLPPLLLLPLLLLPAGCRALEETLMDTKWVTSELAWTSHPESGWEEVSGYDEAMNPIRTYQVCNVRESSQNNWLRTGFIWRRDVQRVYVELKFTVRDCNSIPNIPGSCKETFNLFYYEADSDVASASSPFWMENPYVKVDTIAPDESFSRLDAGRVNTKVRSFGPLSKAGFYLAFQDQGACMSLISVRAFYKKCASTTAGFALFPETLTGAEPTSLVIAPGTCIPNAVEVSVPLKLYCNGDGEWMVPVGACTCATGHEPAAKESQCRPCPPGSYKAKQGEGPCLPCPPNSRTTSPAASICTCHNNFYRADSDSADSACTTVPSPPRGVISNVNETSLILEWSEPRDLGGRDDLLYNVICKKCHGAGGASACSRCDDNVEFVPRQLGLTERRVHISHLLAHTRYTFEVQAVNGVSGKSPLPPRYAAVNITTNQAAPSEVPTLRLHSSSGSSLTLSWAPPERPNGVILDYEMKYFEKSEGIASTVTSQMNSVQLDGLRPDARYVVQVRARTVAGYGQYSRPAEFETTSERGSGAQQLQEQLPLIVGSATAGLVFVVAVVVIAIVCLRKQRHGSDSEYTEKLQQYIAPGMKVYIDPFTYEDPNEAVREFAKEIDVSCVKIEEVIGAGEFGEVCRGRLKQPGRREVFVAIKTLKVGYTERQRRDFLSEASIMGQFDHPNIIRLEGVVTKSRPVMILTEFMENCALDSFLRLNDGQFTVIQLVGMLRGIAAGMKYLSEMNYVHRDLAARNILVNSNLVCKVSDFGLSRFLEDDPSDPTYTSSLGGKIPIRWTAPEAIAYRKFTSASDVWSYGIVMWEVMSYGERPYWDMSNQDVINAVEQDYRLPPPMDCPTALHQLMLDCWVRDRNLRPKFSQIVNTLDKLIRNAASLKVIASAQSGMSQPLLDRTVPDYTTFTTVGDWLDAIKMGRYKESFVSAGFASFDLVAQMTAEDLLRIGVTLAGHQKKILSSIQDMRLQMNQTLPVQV

[7] = molecular target: Bromodomain-containing protein 4 (Homo sapiens) (UniProt O60885); assay: BRD4 SGC Tm panel (DSF); conditions: for ΔTm: Compound concentration 10.0 uM
[8] = molecular target: T2, Serine/threonine-protein kinase PLK4 (Homo sapiens) (UniProt O00444); assay: PLK4 SGC Tm panel (DSF); conditions: for ΔTm: Compound concentration 10.0 uM
T2 sequence (whole entry): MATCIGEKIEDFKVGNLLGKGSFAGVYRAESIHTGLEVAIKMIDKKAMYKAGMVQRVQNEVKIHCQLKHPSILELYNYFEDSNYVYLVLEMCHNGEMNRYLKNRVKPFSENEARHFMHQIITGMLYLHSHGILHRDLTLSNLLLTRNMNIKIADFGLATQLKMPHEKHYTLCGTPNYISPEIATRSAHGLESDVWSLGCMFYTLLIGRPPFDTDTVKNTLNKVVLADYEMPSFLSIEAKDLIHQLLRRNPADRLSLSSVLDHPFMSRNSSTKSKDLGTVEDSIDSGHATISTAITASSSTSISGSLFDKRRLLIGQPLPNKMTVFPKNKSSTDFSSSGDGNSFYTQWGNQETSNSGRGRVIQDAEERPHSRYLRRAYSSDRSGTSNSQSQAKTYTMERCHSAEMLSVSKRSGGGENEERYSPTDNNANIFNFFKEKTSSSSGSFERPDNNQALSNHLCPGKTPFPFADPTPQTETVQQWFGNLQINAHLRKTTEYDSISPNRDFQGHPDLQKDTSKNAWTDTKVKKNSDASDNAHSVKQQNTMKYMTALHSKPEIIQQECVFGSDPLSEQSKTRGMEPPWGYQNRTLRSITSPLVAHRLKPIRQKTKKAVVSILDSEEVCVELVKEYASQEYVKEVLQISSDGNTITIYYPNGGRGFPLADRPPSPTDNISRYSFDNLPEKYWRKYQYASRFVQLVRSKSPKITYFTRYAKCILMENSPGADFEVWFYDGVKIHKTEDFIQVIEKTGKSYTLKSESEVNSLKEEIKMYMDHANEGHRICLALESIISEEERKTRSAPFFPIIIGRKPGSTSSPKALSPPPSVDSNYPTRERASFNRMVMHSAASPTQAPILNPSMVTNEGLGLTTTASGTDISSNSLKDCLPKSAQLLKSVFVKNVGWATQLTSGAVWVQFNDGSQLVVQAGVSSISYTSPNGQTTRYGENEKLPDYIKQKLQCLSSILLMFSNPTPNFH

[9] = molecular target: T3, Myotonin-protein kinase (Homo sapiens) (UniProt Q09013); assay: DMPK SGC Tm panel (DSF); conditions: for ΔTm: Compound concentration 10.0 uM
T3 sequence (whole entry): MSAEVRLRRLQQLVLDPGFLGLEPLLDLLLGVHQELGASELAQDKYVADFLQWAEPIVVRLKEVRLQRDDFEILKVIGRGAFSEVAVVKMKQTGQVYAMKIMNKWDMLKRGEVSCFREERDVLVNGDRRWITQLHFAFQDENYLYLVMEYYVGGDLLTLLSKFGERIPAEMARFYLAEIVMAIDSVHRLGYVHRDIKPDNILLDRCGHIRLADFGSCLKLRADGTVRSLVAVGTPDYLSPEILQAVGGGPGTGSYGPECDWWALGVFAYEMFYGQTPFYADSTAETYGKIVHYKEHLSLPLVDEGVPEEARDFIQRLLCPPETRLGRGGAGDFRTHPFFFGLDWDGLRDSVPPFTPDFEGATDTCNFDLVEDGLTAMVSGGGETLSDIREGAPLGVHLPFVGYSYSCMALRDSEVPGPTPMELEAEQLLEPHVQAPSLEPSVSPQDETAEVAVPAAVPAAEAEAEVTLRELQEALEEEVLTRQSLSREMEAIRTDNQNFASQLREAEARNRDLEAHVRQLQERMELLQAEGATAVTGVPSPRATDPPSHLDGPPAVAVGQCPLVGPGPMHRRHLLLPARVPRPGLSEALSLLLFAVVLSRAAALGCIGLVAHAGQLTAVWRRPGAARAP

MAP/microtubule affinity-regulating kinase 3 (Homo sapiens), sequence (P27448 whole entry, looked up): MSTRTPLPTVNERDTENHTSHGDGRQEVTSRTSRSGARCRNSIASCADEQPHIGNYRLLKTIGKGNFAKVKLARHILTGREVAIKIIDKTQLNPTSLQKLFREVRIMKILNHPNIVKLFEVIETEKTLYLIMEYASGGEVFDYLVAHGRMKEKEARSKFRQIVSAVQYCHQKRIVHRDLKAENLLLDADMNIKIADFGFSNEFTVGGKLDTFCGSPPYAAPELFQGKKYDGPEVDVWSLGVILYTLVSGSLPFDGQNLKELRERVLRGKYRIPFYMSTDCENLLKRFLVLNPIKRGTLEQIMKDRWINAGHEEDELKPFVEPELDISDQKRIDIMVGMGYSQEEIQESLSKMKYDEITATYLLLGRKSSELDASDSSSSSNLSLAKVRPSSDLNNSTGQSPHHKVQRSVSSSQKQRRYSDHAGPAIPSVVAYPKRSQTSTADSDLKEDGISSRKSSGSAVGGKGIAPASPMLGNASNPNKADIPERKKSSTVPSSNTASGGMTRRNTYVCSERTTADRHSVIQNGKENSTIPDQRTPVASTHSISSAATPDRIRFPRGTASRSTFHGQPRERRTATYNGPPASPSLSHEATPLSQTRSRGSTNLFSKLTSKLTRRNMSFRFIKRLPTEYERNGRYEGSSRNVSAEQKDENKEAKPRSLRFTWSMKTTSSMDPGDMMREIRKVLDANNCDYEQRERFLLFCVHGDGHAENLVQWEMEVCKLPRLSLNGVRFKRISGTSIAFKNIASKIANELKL
Serine/threonine-protein kinase 24 (Homo sapiens), sequence (Q9Y6E0 whole entry, looked up): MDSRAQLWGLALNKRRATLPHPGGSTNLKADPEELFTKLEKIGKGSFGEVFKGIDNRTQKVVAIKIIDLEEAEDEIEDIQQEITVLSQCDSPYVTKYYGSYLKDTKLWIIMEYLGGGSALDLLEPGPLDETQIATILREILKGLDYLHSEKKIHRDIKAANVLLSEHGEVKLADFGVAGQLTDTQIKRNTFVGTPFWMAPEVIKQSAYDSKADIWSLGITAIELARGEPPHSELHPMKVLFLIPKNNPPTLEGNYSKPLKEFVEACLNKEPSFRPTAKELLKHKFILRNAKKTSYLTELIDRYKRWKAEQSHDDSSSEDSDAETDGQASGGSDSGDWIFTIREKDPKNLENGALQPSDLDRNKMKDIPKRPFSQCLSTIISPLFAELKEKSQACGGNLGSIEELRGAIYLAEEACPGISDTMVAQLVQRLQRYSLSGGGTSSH
Calcium/calmodulin-dependent protein kinase type II subunit beta (Homo sapiens), sequence (Q13554 whole entry): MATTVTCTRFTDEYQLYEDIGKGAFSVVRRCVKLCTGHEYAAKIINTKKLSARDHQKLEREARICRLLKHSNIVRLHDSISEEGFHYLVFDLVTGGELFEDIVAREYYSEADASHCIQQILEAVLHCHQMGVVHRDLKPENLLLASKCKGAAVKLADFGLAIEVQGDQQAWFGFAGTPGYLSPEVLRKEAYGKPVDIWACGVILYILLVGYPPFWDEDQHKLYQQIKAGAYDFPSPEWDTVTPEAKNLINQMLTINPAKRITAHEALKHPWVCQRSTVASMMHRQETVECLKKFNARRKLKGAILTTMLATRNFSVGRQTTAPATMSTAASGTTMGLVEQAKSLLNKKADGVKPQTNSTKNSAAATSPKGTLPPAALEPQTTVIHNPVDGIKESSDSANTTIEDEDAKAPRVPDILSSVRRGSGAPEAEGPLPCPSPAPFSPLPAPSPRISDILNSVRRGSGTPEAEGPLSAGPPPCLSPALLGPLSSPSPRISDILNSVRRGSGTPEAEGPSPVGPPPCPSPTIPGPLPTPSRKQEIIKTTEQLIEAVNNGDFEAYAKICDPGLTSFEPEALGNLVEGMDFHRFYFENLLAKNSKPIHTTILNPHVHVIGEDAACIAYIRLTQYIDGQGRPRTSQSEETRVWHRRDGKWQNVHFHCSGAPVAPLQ
Kappa-type opioid receptor (Homo sapiens), sequence (P41145 whole entry): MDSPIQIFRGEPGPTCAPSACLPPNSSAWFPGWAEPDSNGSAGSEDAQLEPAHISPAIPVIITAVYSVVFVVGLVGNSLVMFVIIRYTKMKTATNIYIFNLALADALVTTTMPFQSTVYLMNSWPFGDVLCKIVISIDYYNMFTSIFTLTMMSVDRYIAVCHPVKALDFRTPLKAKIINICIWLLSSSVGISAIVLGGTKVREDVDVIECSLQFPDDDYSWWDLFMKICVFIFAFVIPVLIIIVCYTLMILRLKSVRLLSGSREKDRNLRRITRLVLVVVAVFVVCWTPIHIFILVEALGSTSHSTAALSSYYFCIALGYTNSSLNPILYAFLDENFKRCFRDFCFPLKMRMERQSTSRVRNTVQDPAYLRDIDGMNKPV

delta Tm Staurosporine positive control [1] | ΔTm [1] | delta Tm Staurosporine positive control [2] | ΔTm [2] | delta Tm Staurosporine positive control [3] | ΔTm [3] | inhibition [4] [%] | delta Tm Staurosporine positive control [5] | ΔTm [5] | delta Tm Staurosporine positive control [6] | ΔTm [6] | delta Tm Staurosporine positive control [7] | ΔTm [7] | delta Tm Staurosporine positive control [8] | ΔTm [8] | delta Tm Staurosporine positive control [9] | ΔTm [9] | Structure (SMILES)
6.74 | -5.55 | 14.5 | 0.588 | 19.1 | 1.12 | 10.7 | 15.5 | 0.601 | 7.3 | -0.288 | 1.03 | -0.843 | 19.9 | 0.546 | 9.28 | 0.564 | COC[C@H](NC(=O)c1ccn(S(C)(=O)=O)c1)C(=O)Nc1nc(-c2cccc(-c3ccn(C)n3)c2)cs1
6.74 | -1.99 | 14.5 | 0.509 | 19.1 | 1.73 | 4.84 | 15.5 | 0.352 | 7.3 | -0.415 | 1.03 | -0.303 | 19.9 | 0.729 | 9.28 | -0.281 | C[C@H](NC(=O)c1cn(C2(C#N)CC2)cn1)C(=O)Nc1nc(-c2cccc(-c3ccn(C)n3)c2)cs1
